BindingDB's records for PubMed 39011823 (University of Lille)

biological target: Insulin-regulated aminopeptidase (Homo sapiens); experiment: Inhibition of human recombinant IRAP expressed in baculovirus infected Sf9 cells using L-AMC as substrate incubated for 5 to 10 mins by Michaelis-Menten analysis

Row | IC50 [nM] | Compound
1 | 120 | NC1CCc2c(Br)ccc(-c3ccccc3)c2CC1=O (stereo not drawn)
2 | 34 | NC1CCc2c(Br)ccc(Br)c2CC1=O (stereo not drawn)

biological target: Leucyl-cystinyl aminopeptidase (Homo sapiens) (UniProt Q9UIQ6); experiment: Inhibition of IRAP (unknown origin) using L-pNA as substrate
Sequence (Q9UIQ6 whole entry, looked up): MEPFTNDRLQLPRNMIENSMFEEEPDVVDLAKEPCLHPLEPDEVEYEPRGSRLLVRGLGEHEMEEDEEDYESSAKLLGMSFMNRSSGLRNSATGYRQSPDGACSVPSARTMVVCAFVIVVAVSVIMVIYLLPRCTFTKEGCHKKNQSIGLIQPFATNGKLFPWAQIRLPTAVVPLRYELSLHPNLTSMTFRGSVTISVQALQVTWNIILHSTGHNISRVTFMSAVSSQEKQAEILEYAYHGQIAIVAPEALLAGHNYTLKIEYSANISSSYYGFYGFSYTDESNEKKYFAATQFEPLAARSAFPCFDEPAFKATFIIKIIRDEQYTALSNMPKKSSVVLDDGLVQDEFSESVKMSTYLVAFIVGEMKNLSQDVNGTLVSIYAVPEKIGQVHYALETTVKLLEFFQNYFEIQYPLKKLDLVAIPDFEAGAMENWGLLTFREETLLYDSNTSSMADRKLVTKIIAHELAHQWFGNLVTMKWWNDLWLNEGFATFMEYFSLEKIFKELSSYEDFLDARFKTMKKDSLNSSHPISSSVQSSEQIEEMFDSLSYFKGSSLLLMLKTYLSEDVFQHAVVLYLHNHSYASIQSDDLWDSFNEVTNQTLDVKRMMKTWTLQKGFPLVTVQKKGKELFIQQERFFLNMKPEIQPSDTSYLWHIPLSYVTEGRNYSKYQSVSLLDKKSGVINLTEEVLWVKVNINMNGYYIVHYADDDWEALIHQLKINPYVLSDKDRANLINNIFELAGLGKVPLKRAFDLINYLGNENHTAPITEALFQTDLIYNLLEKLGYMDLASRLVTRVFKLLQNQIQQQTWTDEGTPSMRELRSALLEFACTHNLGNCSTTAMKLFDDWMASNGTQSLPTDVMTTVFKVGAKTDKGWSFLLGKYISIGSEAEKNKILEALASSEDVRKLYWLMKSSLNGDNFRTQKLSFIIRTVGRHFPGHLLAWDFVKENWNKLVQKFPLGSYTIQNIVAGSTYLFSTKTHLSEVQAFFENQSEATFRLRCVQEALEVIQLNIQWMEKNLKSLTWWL

Row | IC50 [nM] | Compound
3 | 2100 | O=S(=O)(Nc1ccccc1)c1ccccc1 [phenyl(phenylsulfonyl)amine]

biological target: Leucyl-cystinyl aminopeptidase (Homo sapiens) (UniProt Q9UIQ6); experiment: Inhibition of IRAP (unknown origin) using L-AMC as substrate

Row | IC50 [nM] | Compound
4 | 218 | CC(C)C[C@H](CP(=O)(O)[C@@H](N)CCc1ccccc1)C(N)=O
5 | 160000 | COc1ccc(C(=O)O)cc1S(=O)(=O)N(C)c1cc(C(F)(F)F)ccc1N1CCCCC1
6 | > 200000 | COc1ccc(C(=O)O)cc1S(=O)(=O)Nc1cc(C(F)(F)F)ccc1N1CCCCC1
7 | 344 | CC(C)C[C@@H](CP(=O)(O)[C@@H](N)CCc1ccccc1)C(N)=O
8 | 2 | C#C[C@H](CP(=O)(O)[C@@H](N)CCc1ccccc1)C(=O)N[C@@H](Cc1ccccc1)C(N)=O
9 | > 200000 | COc1ccc(C(=O)O)cc1S(=O)(=O)N(C)c1cc(C(F)(F)F)ccc1N1CCN(C)CC1
10 | 560 | O=C(NO)[C@H](Cc1ccc(Oc2ccccc2)cc1)n1cc(CNS(=O)(=O)c2ccc(-c3ccccn3)s2)nn1 [US20240101542, Compound 23]
11 | 383 | COc1ccc(C[C@@H](C(=O)NO)n2cc(CNS(=O)(=O)c3ccc(-c4ccccc4)s3)nn2)cc1 [US20240101542, Compound 24]
12 | 186 | COc1ccc(C[C@@H](C(=O)NO)n2cc(CNS(=O)(=O)c3ccc(-c4ccccn4)s3)nn2)cc1 [US20240101542, Compound 25]
13 | 84 | O=C(C[C@H](Cc1ccc(O)cc1)n1nncc1CNS(=O)(=O)c1ccc(-c2ccccn2)s1)NO [US20240101542, Compound 33]
